Measured values published in US12661362B2, “Methods for the prevention and treatment of hearing loss” (Ting Therapeutics LLC, priority 2020, dated 2026).

What was measured:
FVB/NJ mice = experiment: Cisplatin-induced hearing loss in FVB/NJ mice (ABR, DPOAE, wave-1, hair cell count); format: in vivo, mouse
Description: Now referring to FIGS. 4A-4F Niclosamide attenuates Cisplatin-induced hearing loss in FVB/NJ mice. Mice: Procedures used with mice were approved by the Institutional Animal Care and Use Committee (IACUC) at the Creighton University. For functional assessments including Cisplatin and noise exposure experiments 5 to 7-week-old FVB/NJ mice obtained from Jackson Laboratory (Bar Harbor, ME, USA) were used, with a mix of males and females across experiments. For the Cisplatin and noise studies, FVB/NJ mice were treated with 10 mg/kg Niclosamide, through intraperitoneal (IP) injection. Niclosamide, was dissolved in 1% DMSO in normal saline (0.9% NaCl solution) and vortexed multiple times before injections. Treatment started 24 hours before the Cisplatin or noise-exposure and continued once daily for 3 more days. Cisplatin was injected IP at 30 mg/kg divided into 2 doses per day. Animals were given 1 mL warm sterile normal saline subcutaneously twice a day before and for 7 days after Cisplatin treatment to prevent dehydration.
Now referring to FIG. 4A, ABR tests were performed 2-3 days before Cisplatin exposure, and 5 days post-Cisplatin exposure. The experimental groups included: Cisplatin and 1% DMSO, Cisplatin and Niclosamide, Niclosamide, only, and age-matched controls receiving normal saline. For the noise experiment, auditory tests were performed 2-3 days prior to noise exposure (paradigm described below), at post-exposure day-1 to monitor temporary threshold shift (TTS) and at post-exposure day-14 to monitor permanent threshold shift (PTS). Experimental groups included: noise-exposure and normal saline, noise-exposure and Niclosamide, Niclosamide-only, and age-matched controls. Following the final auditory function measurements, mice were euthanized, and cochleae were collected for morphological assessment. Based on the results of FVB/NJ ABR/DPOAE threshold variances and power analysis, ten FVB/NJ mice per group (5 of each sex) were used in this study.
Now referring to FIG. 4B measurement of the distortion products otoacoustic emission (DPOAE) thresholds at frequencies ranging from 8 to 40 kHz in cisplatin, niclosamide, control, and cisplatin-niclosamide treated-mice.
Now referring to FIG. 4C-4D, mean wave-1 amplitudes at 8, 16, 32, and 40 kHz was measured in the control and Niclosamide-treated mice before Cisplatin injection and at Day 5 post-Cisplatin injection. The ABR wave-1 amplitude represents the summed activity of the cochlear nerve. Amplitudes from the 85 dB SPL stimuli were compared between groups in the baseline ABR measurements using a two-factor ANOVA (group x frequency), and no group differences were detected (P>0.05).
(§1) Now referring to FIGS. […], representative samples of the mouse HCs at 32 kHz, the most protected frequency region shown by ABR measurement (FIG. 4E). […] Niclosamide protects NMDA-induced hair cell loss in zebrafish. Application of the N-methyl-d-aspartate (NMDA) to zebrafish neuromast HCs has also been used to mimic glutamate excitotoxicity associated with noise exposure (Katie S. Kindt and Lavinia Sheets, 2018). The results of the HC count following exposure of zebrafish to 300 μM NMDA led to hair-cell loss.

ggcsh = experiment: Expression of nrf2 downstream gene ggcsh in zebrafish; format: in vivo; details: 0.002-1.48 μM, 6 hours
Method: Additionally to FIGS. 6A-6B, but not shown, 5 dpf zebrafish were incubated for 6 hours with vehicle, niclosamide (2 nM to 1.48 μM) and the nrf2 pathway activator […] (DEM) as a positive control, in order to evaluate the effect of niclosamide on ggcsh, a nrf2 downstream target. Ggcsh was previously validated as a Nrf2 downstream target in zebrafish. (Sheets, 2017). Following incubation, the total RNA was isolated from whole fish and processed to measure the induced expression of nrf2 downstream gene ggcsh. […] Additionally, Nrf2a morpholinos morphlinos were prepared, followed by incubation of the zebrafish morphants with cisplatin and/or niclosamide. Zebrafish eggs were injected with 4.5 ng of scrambled morpholino or nrf2a morpholino (5′-[…] SEQ NO: 1). At 3 dpf non-injected and morphant animals were exposed to vehicle, cisplatin (300 μM), cisplatin+niclosamide 18.3 nM or niclosamide alone for 6 hours. Following 1-hour recovery, animals were fixed and processed for immunohistochemistry. Nrf2a KD was confirmed by analyzing expression of Glutathione S-transferase P1 (gstp1), a downstream target, due to lack of proper antibody to detect Nrf2 protein in zebrafish.

zebrafish neuromast HCs [1] = experiment: NMDA excitotoxicity in zebrafish neuromast hair cells; format: in vivo; details: 2 nM and 18 nM; 300 μM NMDA
Method: as §1
Now referring to FIGS. 5A-5F Niclosamide had protective effects on NIHL in Zebrafish and FVB/NJ mice in vivo. CIHL and NIHL share mechanistic commonalities. Now referring to FIG. 5A, to test whether Niclosamide protects HCs from excitotoxic trauma, a zebrafish model that mimics noise damage was employed, Zebrafish were exposed to the ionotropic glutamate receptor agonist, N-methyl-D-aspartate (NMDA), previously shown to cause progressive HC loss in zebrafish lateral-line organs (Sheets, 2017) with or without niclosamide. 5-dpf larvae were preincubated with 300 μM NMDA for 50 min followed by 2 hours incubation with niclosamide at 2 nM and 18.3 nM.

zebrafish neuromast HCs [2] = experiment: Zebrafish lateral-line neuromast hair cell protection against Cisplatin; format: in vivo, Danio rerio
Method: Danio rerio experimental larvae were obtained by pair mating of adult fish maintained at Creighton University by standard methods approved by the Institutional Animal Care and Use Committee. […] We used Tg(pou4f3:mGFP) expressing a membrane bound GFP in HCs. Experimental fish were maintained at 28.5° C. in E3 media (5 mM NaCl, 0.17 mM KCl, 0.33 mM CaCl2) and […], pH 7.2). Animals were cryoanaesthetized after drug treatment and prior to fixation. The neuromasts inspected, S03 and 01-2, were part of the cranial system and included the otic, middle, and opercular neuromasts.
Subsequently, animals were transferred to E3 water for 5 hours and fixed in 4% paraformaldehyde (PFA) overnight (26). Neuromast HCs were immunolabeled with anti-otoferlin (HCS-1, DSHB) and anti-GFP (NB100-1614, Novus Biologicals). These two markers were used to detect and count neuromast HCs to reduce the chances of missing some of the HCs after the treatment since we previously noticed that incubation with the compounds can affect GFP expression more difficult to detect under a fluorescence microscope. Otic, middle, and opercular neuromasts were identified, and HCs at S03 (supraorbital line neuromast) and 01-2 (Otic line neuromasts) were manually counted using a Zeiss AxioSkop 2 fluorescence microscope with a 40× oil objective. Compounds were then evaluated on efficiency and potency, with the top-rated compounds showing high protection at lower concentrations.

Q: What does the source list for `O=C(Nc1ccc([N+](=O)[O-])cc1Cl)c1cc(Cl)ccc1O` [Niclosamide, 5-chloro-N-(2-chloro-4-nitrophenyl)-2-hydroxy-benzamide]?
A: ABR threshold shifts versus Cisplatin-only mice (FVB/NJ mice; 8, 12 and 32 kHz, 10 mg/kg IP, Cisplatin 30 mg/kg): significantly reduced ABR threshold shifts; DPOAE threshold shifts versus Cisplatin-only mice (FVB/NJ mice; 16 and 32 kHz, 10 mg/kg IP, Day 5 post-Cisplatin): significantly reduced DPOAE threshold shifts; HC survival versus Cisplatin group (FVB/NJ mice; 30 kHz region): more HC survival; outer hair cell quantification, protection against Cisplatin-induced hair cell loss (FVB/NJ mice; 32 kHz region, cotreatment): full protection; ABR wave-1 amplitudes versus Cisplatin only group (FVB/NJ mice; all tested frequencies at 85 dB SPL, Day 5 post-Cisplatin): higher amplitudes; expression of ggcsh (ggcsh): significantly lowered; HC survival after NMDA (zebrafish neuromast HCs [1]): significantly increased HC survival; highest level of protection of neuromast HCs (zebrafish neuromast HCs [2]; 0.002 μM, lowest concentration tested, normalized to Cisplatin only (0%) and DMSO (100%)): ~50%; hair cell loss (fluorescent staining of neuromasts) (zebrafish neuromast HCs [2]; 0.002-13.3 μM, Cisplatin-treated zebrafish): reduce hair cell loss; Cisplatin damage in zebrafish HCs at S03 and O1-2 (zebrafish neuromast HCs [2]; pretreated with 0.002 μM): significantly reduced Cisplatin damage
